Calls of active or inactive are those of the source. The rule behind the calls is not given here.

For experiment [1], the species on record is Rattus norvegicus. As to the kind of experiment: Inhibition of the rat conditioned avoidance response, CAR (Tranquilizing activity, peroral). The experiment is classed as functional. Particulars: po.
The test system of experiment [2] is Rattus norvegicus. As to the kind of experiment: Ability to reverse trifluoperazine-induced catalepsy in rat (po); IA = Compound induced catalepsy. The experiment is classed as functional, organism-based.
Experiment [3] has as its target D(2) dopamine receptor (Rattus norvegicus, UniProt P61169). The experiment is described as follows: Ability to inhibit [3H]spiperone binding to Dopamine receptor D2 in rat corpus striatum. The experiment is classed as tissue-based.
The test system of experiment [4] is Rattus norvegicus. As to the kind of experiment: In vivo inhibition of apomorphine (APO) induced stereotypy in rats (po). The class given is functional.
The target of experiment [5] is T1, Adrenergic receptor alpha-1 (Rattus norvegicus, UniProt P15823+P23944+P43140).
T1 sequence (P15823 whole entry): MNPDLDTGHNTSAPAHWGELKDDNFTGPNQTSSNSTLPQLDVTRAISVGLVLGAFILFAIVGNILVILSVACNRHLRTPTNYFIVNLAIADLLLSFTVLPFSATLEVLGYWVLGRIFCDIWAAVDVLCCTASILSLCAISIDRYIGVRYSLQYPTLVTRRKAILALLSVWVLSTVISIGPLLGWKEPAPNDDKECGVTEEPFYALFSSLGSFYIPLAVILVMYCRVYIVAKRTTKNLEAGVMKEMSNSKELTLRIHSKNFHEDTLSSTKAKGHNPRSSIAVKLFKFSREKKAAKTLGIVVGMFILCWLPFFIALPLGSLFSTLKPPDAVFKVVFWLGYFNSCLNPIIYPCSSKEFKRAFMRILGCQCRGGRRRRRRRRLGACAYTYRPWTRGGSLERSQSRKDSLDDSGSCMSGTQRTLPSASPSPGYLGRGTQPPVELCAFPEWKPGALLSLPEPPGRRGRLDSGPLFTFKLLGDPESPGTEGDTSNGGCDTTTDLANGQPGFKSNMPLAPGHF
T1 sequence (P23944 whole entry): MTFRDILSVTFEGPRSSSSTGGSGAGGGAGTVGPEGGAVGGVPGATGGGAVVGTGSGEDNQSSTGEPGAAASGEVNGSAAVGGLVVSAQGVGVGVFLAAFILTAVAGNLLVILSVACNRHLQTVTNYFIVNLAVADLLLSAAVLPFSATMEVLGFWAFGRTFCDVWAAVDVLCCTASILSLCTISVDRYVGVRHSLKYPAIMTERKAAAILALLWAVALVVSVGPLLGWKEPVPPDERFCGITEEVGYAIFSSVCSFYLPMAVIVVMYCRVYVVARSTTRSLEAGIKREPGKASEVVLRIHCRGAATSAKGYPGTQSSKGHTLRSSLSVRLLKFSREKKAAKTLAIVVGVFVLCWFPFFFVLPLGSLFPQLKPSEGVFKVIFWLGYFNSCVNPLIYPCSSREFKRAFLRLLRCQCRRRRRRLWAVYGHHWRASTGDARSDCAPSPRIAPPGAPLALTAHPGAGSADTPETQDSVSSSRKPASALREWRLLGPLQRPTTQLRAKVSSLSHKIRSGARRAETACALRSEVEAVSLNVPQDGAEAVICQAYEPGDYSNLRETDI
T1 sequence (P43140 whole entry): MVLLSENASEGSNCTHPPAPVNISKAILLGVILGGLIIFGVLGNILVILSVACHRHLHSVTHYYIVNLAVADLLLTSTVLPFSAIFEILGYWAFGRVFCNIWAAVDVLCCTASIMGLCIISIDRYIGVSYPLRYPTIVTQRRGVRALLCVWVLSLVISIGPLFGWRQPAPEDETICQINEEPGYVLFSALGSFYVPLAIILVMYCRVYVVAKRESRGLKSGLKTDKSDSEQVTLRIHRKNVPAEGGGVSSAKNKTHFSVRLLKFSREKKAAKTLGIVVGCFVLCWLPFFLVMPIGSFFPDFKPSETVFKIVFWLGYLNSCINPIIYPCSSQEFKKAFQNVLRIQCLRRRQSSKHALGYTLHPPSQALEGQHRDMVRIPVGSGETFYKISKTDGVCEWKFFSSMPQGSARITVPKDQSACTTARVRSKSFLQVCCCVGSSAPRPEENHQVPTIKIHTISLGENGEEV
As to the kind of experiment: Ability to inhibit [3H]WB-4101 binding to rat cortical alpha-1-adrenergic receptor. The experiment is classed as protein assay.

Experiment [6] deals with Rattus norvegicus. The experiment is described as follows: Induction of catalepsy in rat (po).
Experiment [7] relates to Rattus norvegicus. The experiment is described as follows: Ability to reverse trifluoperazine-induced catalepsy in rat (po). The experiment is classed as functional.

Chain of D(2) dopamine receptor (P61169 whole entry): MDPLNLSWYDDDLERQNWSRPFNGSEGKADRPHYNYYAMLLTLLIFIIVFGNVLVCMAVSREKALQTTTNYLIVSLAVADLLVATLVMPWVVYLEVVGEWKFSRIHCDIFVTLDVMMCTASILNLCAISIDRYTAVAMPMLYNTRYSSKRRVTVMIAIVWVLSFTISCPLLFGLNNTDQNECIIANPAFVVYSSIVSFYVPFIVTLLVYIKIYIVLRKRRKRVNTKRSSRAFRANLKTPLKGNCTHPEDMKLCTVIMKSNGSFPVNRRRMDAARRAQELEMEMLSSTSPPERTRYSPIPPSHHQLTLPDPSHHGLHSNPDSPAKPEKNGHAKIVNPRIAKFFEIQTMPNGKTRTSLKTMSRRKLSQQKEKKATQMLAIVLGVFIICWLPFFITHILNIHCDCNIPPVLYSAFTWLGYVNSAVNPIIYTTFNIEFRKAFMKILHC

In experiment [1], `O=C1CSC(=O)N1CCCCN1CCN(c2ccccn2)CC1` registered an ED50 of 45.8 mg/kg. Further, in experiment [2], the ED50 entry was “inactive”. The compound further registered an IC50 in experiment [3] of more than 1000 nM.

As to `CN1CCN(C2=Nc3cc(Cl)ccc3Nc3ccccc32)CC1`, the ED50 result in experiment [2] is “inactive”.

Consider `O=C1COCC(=O)N1CCCCN1CCN(c2ncccc2Cl)CC1`, for which the ED50 in experiment [4] is more than 63 mg/kg; in experiment [1] it was 59.8 mg/kg. Also, the IC50 in experiment [5] was 16 nM; in experiment [3] it was more than 1000 nM.

Turning to `N#Cc1cccnc1N1CCN(CCCCN2C(=O)CSC2=O)CC1`, the ED50 in experiment [4] is more than 100 mg/kg; in experiment [1], 15.8 mg/kg. Further, the IC50 in experiment [5] was 39 nM; in experiment [3], more than 1000 nM. Moreover, in experiment [2], the ED50 entry was “inactive”.

Regarding `O=C1COCC(=O)N1CCCCN1CCN(c2ncccc2[N+](=O)[O-])CC1`, the 50% effective dose (ED50) worked out at 55 mg/kg in experiment [1] and 220 mg/kg in experiment [6]. Moreover, the IC50 in experiment [5] is 38.3 nM; in experiment [3], more than 1000 nM.

In the case of `O=C1COCC(=O)N1CCCCN1CCN(c2ncccc2-c2ccccc2)CC1`, the ED50 in experiment [4] was more than 63 mg/kg; in experiment [1] it was more than 100 mg/kg. Further, the IC50 is 16 nM in experiment [5] and more than 41 nM in experiment [3].

In the case of `CC1(C)CC(=O)N(CCCCN2CCN(c3ncccc3-c3ccccc3)CC2)C(=O)C1`, the ED50 in experiment [1] worked out at 67.6 mg/kg; in experiment [6], 90.8 mg/kg. Further, the IC50 in experiment [3] turned out to be 109 nM.

Consider `O=C1SC2(CCCC2)C(=O)N1CCCCN1CCN(c2ccccn2)CC1`, for which the figures for the median effective dose (ED50) in experiment [4] and in experiment [1] were more than 95 mg/kg and 20.8 mg/kg, respectively. Further, in experiment [2], the ED50 entry is “inactive”. The compound further yielded an IC50 in experiment [3] of 620 nM.

For the compound `O=C1SC2(CCCC2)C(=O)N1CCCCN1CCN(c2ncccc2[N+](=O)[O-])CC1`, the ED50 came out at 43.6 mg/kg in experiment [4], 25.3 mg/kg in experiment [1] and 44.2 mg/kg in experiment [7]. Also, the figures for the IC50 in experiment [5] and in experiment [3] were 34.1 nM and 69 nM, respectively.

With `CO/N=C\c1cccnc1N1CCN(CCCCN2C(=O)SC3(CCCC3)C2=O)CC1`, in experiment [1], the ED50 was 71.3 mg/kg. Also, the IC50 in experiment [5] was determined as 67.4 nM; in experiment [3], 428 nM. In experiment [2], the ED50 result was “inactive”.

Compound `O=Cc1cccnc1N1CCN(CCCCN2C(=O)COCC2=O)CC1` came in with an ED50 in experiment [1] of more than 100 mg/kg. For the same compound, in experiment [3], the IC50 is more than 1000 nM.

For `COc1cccc(N2CCN(CCCCN3C(=O)SC4(CCCC4)C3=O)CC2)n1`, the ED50 in experiment [4] is more than 100 mg/kg; in experiment [1], 35.9 mg/kg. In addition, the ED50 entry in experiment [2] was “inactive”. In experiment [3], the IC50 is more than 1000 nM.

In experiment [1], `Cc1nnc(-c2cccnc2N2CCN(CCCCN3C(=O)CC4(CCCC4)CC3=O)CC2)o1` yielded a 50% effective dose (ED50) of 70.9 mg/kg. For the same compound, the IC50 in experiment [3] is 610 nM.

With `COc1cccc(N2CCN(CCCCN3C(=O)CC(C)(C)CC3=O)CC2)n1`, the ED50 was 76.2 mg/kg in experiment [4], 11.9 mg/kg in experiment [1] and 48 mg/kg in experiment [6]. In addition, the IC50 in experiment [5] is 68 nM; in experiment [3], more than 1000 nM.

With `O=C1SC2(CCCC2)C(=O)N1CCCCN1CCN(c2ncccc2Cl)CC1`, the values for the 50% effective dose (ED50) in experiment [4] and in experiment [1] were 50 mg/kg and 66.9 mg/kg, respectively. Besides, the IC50 came out at 19.9 nM in experiment [5] and 160 nM in experiment [3]. The ED50 result in experiment [2] is “inactive”.

Consider `Cc1cccnc1N1CCN(CCCCN2C(=O)SC3(CCCC3)C2=O)CC1`, for which the ED50 is more than 50 mg/kg in experiment [4] and 46.4 mg/kg in experiment [1]. In addition, in experiment [2], the ED50 entry was “inactive”. The same compound displayed an IC50 in experiment [3] of 630 nM.

Take `O=Cc1cccnc1N1CCN(CCCCN2C(=O)SC3(CCCC3)C2=O)CC1`: the ED50 in experiment [4] was determined as 48 mg/kg; in experiment [1], 60 mg/kg; in experiment [7], 12.9 mg/kg. The values for the IC50 in experiment [5] and in experiment [3] were 9.6 nM and 130 nM, respectively.

Turning to `Cc1cccnc1N1CCN(CCCCN2C(=O)CC3(CCCC3)CC2=O)CC1`, the ED50 in experiment [1] is 46.4 mg/kg; in experiment [6], more than 186 mg/kg. The compound further yielded a half-inhibitory concentration (IC50) in experiment [3] of 476 nM.

As for `COc1cccnc1N1CCN(CCCCN2C(=O)SC3(CCCC3)C2=O)CC1`, the ED50 is less than 57 mg/kg in experiment [4] and 18.8 mg/kg in experiment [1]. Besides, the ED50 result in experiment [2] was “inactive”. The compound also registered an IC50 in experiment [3] of 79 nM.

For the compound `Cc1cccnc1N1CCN(CCCCN2C(=O)CC(C)(C)CC2=O)CC1`, the figures for the ED50 in experiment [4], in experiment [1] and in experiment [6] were more than 100 mg/kg, 42.1 mg/kg and more than 200 mg/kg, respectively. Moreover, the IC50 in experiment [3] is more than 1000 nM.

Turning to `CC1(C)CC(=O)N(CCCCN2CCN(c3ncccc3Cl)CC2)C(=O)C1`, the ED50 in experiment [1] is 25.9 mg/kg; in experiment [6], 104 mg/kg. The compound also gave an IC50 in experiment [3] of 360 nM.

Take `N#Cc1cccnc1N1CCN(CCCCN2C(=O)SC3(CCCC3)C2=O)CC1`: the ED50 in experiment [4] was 29.3 mg/kg; in experiment [1] it was 38 mg/kg; in experiment [7], 9.2 mg/kg. Also, the IC50 in experiment [5] amounted to 35 nM; in experiment [3] it was 34 nM.

As for `COC(=O)c1cccnc1N1CCN(CCCCN2C(=O)SC3(CCCC3)C2=O)CC1`, the ED50 in experiment [4] came to 50.2 mg/kg; in experiment [1] it was 29.8 mg/kg; in experiment [7], 5.05 mg/kg. In addition, the figures for the IC50 in experiment [5] and in experiment [3] were 7.8 nM and 138 nM, respectively.

Take `COC(=O)c1cccnc1N1CCN(CCCCN2C(=O)CC(C)(C)CC2=O)CC1`: the values for the ED50 in experiment [4], in experiment [1] and in experiment [6] were 69.2 mg/kg, 57 mg/kg and 228 mg/kg, respectively. Further, the IC50 in experiment [5] is 36.9 nM; in experiment [3], more than 1000 nM.

As to `O=C1SC2(CCCC2)C(=O)N1CCCCN1CCN(c2ncccc2-c2ccccc2)CC1`, the ED50 in experiment [4] and in experiment [1] was more than 100 mg/kg throughout. The ED50 result in experiment [2] is “inactive”. In experiment [3], this compound returned an IC50 of 236 nM.

In experiment [1], `Nc1cccnc1N1CCN(CCCCN2C(=O)SC3(CCCC3)C2=O)CC1` yielded an ED50 of more than 100 mg/kg. For the same compound, the ED50 entry in experiment [2] is “inactive”. This compound also showed an IC50 in experiment [3] of more than 1000 nM.

(Values after ChEMBL document CHEMBL1124059, “Atypical antipsychotic agents: patterns of activity in a series of 3-substituted 2-pyridinyl-1-piperazine derivatives” (J Med Chem, 1988).)
